Experimental findings from patent publication US8399465B2, “Compounds with two fused bicyclic heteroaryl moieties as modulators of leukotriene A4 hydrolase” (Janssen Pharmaceutica NV, priority 2009, dated 2013) are described below.

Structures can show the parent of a compound that is named as a salt. Where only a bound is given, the exact number is not on record here.

What is called IC50 is the concentration needed to halve the response being measured.

This assay deals with T1, recombinant human LTA4 hydrolase (rhLTA4H) (Homo sapiens, UniProt P09960).
T1 construct: made in house; host or cells: Spodoptera frugiperda (Sf-9) cells, baculovirus (pFastBac1)
T1 sequence (P09960 1-611): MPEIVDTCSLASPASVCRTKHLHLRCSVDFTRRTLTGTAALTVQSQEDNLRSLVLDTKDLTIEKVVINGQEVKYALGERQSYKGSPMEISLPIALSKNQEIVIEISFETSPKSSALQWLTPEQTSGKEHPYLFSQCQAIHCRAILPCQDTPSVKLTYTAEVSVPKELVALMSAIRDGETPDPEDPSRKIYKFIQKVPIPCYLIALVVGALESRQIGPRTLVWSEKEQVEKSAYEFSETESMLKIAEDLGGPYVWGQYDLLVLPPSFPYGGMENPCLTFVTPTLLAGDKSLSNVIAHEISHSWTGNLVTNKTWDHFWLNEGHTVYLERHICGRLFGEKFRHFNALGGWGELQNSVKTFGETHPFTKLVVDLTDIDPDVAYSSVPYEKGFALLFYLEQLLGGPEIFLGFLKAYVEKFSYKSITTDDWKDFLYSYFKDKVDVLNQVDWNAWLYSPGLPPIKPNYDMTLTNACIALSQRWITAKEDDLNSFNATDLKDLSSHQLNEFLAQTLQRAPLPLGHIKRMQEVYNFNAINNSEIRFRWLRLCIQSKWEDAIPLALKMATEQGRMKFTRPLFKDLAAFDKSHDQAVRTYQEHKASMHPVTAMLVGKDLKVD
Nature of the assay: Recombinant human LTA4 hydrolase assay for LTA4 hydrolase inhibitor activity. Type of assay: biochemical. Conditions: rhLTA4H, LTB4 by immunoassay; single determination or average of two or more; mark after value = form tested: ′ free base, ″ hydrochloride, ^ formate; read-out: IC50. As for the experimental part: Assay 1: Recombinant Human LTA4 Hydrolase Assay for LTA4 Hydrolase Inhibitor Activity
Compounds of the present invention were tested for LTA4 hydrolase inhibitor activity against recombinant human LTA4 hydrolase (rhLTA4H). Vectors were prepared and used to express rhLTA4H essentially as follows: LTA4 hydrolase encoding DNA was amplified by polymerase chain reaction (PCR) using a human placental cDNA library as a template. […] The amplified 1.9 kb DNA fragment encoding LTA4 hydrolase was isolated and cloned into the pFastBac1 vector (Invitrogen). Recombinant baculovirus was generated as described by the manufacturer, and used to infect Spodoptera frugiperda (Sf-9) cells. […] The purified enzyme solution was adjusted to contain 0.29 mg/mL LTA4 hydrolase, 50 mM Tris (pH 8.0), 150 mM NaCl, 5 mM dithiothreitol, 50% glycerol, and EDTA-free Complete protease inhibitor cocktail (Roche).
LTA4 substrate was prepared from the methyl ester of LTA4 (Cayman Chemical) by treatment with 67 equiv of NaOH under nitrogen at rt for 40 min. The LTA4 substrate in its free acid form was kept frozen at −80° C. until needed. Each compound was diluted to different concentrations in assay buffer (from Assay Designs) containing 10% DMSO. A 25-μL aliquot of each compound dilution was incubated for 10 min at rt with an equal volume of assay buffer containing 10 ng of recombinant human LTA4H. The solution was then adjusted to 200 μL with assay buffer. […] Each reaction was carried out at rt for 30 min. The reaction was stopped by diluting 10 μL of the reaction mixture with 200 μL of assay buffer. LTB4 was quantified in the diluted sample by a commercially available enzyme-linked immunoassay (Cayman Chemical Co.), as recommended by the manufacturer. Positive controls, under essentially identical conditions but without addition of an inhibitor compound, and negative controls, containing all assay components except enzyme, were routinely run in each experiment. IC50 values were determined by nonlinear regression of the activity data at different compound concentrations using Graphpad Prism 4.0, one site binding competition.
The values presented here are the result of a single determination or an average of two or more determinations. Compounds that were not tested are indicated as such by a “NT” designation.
As to `NC(=O)N1C[C@H]2CC[C@@H](C1)N2Cc1cc2cc(Oc3nc4ccccc4s3)ccc2o1` [Example 173, meso-8-[5-(Benzothiazol-2-yloxy)-benzofuran-2-ylmethyl]-3,8-diaza-bicyclo[3.2.1]octane-3-carboxylic acid amide], the IC50 was found to be 187 nM. As to `O=C1Cc2cc(C(F)(F)F)ccc2N1Cc1coc2cc(Oc3nc4ncccc4s3)ccc12` [Example 400, 1-[6-(Thiazolo[4,5-b]pyridin-2-yloxy)-benzofuran-3-ylmethyl]-5-trifluoromethyl-1,3-dihydro-indol-2-one], the IC50 worked out at 1120 nM. As for `CC(=O)N1CCC2(CCN(Cc3coc4cc(Oc5nc6ncccc6s5)ccc34)CC2)C1` [Example 265, 1-{8-[6-(Thiazolo[4,5-b]pyridin-2-yloxy)-benzofuran-3-ylmethyl]-2,8-diaza-spiro[4.5]dec-2-yl}-ethanone], the IC50 is less than 1 nM. To `CS(=O)(=O)NC1CCN(Cc2cc3ccc(Oc4nc5ncccc5s4)cc3o2)C1` (stereo not drawn) [Example 128, N-(1-{[6-([1,3]thiazolo[4,5-b]pyridin-2-yloxy)-1-benzofuran-2-yl]methyl}pyrrolidin-3-yl)methanesulfonamide formate] belongs 84 nM; to `CC(=O)N1C[C@@H]2C[C@H]1CN2Cc1cc2cc(Oc3nc4cccnc4s3)ccc2o1` [Example 121, (1S,4S)-1-{5-[5-(Thiazolo[5,4-b]pyridin-2-yloxy)-benzofuran-2-ylmethyl]-2,5-diaza-bicyclo[2.2.1]hept-2-yl}-ethanone], 488 nM; to `FC1CCN(Cc2cc3cc(Oc4nc5ncccc5s4)ccc3o2)CC1` [Example 111, 2-[2-(4-Fluoro-piperidin-1-ylmethyl)-benzofuran-5-yloxy]-thiazolo[4,5-b]pyridine], 281 nM. Consider `c1ccc2sc(Oc3ccc4cc(CN5CCCCC5)sc4c3)nc2c1` [Example 132, 2-(2-Piperidin-1-ylmethyl-benzo[b]thiophen-6-yloxy)-benzothiazole], for which the IC50 was found to be 720 nM. To `O=C(Cc1ccc(Cl)cc1)NCc1coc2cc(Oc3nc4ncccc4s3)ccc12` [Example 394, 2-(4-Chloro-phenyl)-N-[6-(thiazolo[4,5-b]pyridin-2-yloxy)-benzofuran-3-ylmethyl]-acetamide] belongs 85 nM. Turning to `CCN(Cc1coc2cc(Oc3nc4ncccc4s3)ccc12)C1CCCCC1` [Example 318, Cyclohexyl-ethyl-[6-(thiazolo[4,5-b]pyridin-2-yloxy)-benzofuran-3-ylmethyl]-amine formate], the IC50 was less than 1 nM. The result for `CCN(CC)CCNCc1coc2cc(Oc3nc4ncccc4s3)ccc12` [Example 317, N,N-Diethyl-N′-[6-(thiazolo[4,5-b]pyridin-2-yloxy)-benzofuran-3-ylmethyl]-ethane-1,2-diamine] reads 35 nM; that for `c1cnc2nc(Oc3ccc4cc(CN5C[C@@H]6C[C@H]5CO6)oc4c3)sc2c1` [Example 109, (1S,4S)-2-[2-(2-Oxa-5-aza-bicyclo[2.2.1]hept-5-ylmethyl)-benzofuran-6-yloxy]-thiazolo[4,5-b]pyridine formate], 186 nM; that for `c1cnc2nc(Oc3ccc4cc(CN5CCCCC5)sc4c3)sc2c1` [Example 136, 2-(2-Piperidin-1-ylmethyl-benzo[b]thiophen-6-yloxy)-thiazolo[4,5-b]pyridine], 117 nM. The result for `c1ccc2sc(Oc3ccc4[nH]cc(CCN5CCCCC5)c4c3)nc2c1` [Example 74, 2-[3-(2-Piperidin-1-yl-ethyl)-1H-indol-5-yloxy]-benzothiazole] reads 2030 nM; that for `CC(=O)N(CC(=O)O)[C@H]1C[C@H]2CC[C@@H](C1)N2Cc1c[nH]c2cc(Oc3nc4ccccc4s3)ccc12` [Example 48, meso-endo-(Acetyl-{8-[6-(benzothiazol-2-yloxy)-1H-indol-3-ylmethyl]-8-aza-bicyclo[3.2.1]oct-3-yl}-amino)-acetic acid], 679 nM. On to `NC(=O)NC1CCN(Cc2cc3ccc(Oc4nc5ncccc5s4)cc3o2)C1` (stereo not drawn) [Example 127, 1-(1-{[6-([1,3]Thiazolo[4,5-b]pyridin-2-yloxy)-1-benzofuran-2-yl]methyl}pyrrolidin-3-yl)urea formate], for which the 50% inhibitory concentration (IC50) amounted to 62 nM. Take `CC(=O)N1C[C@@H]2C[C@H]1CN2Cc1coc2cc(Oc3nc4cnccc4s3)ccc12` [Example 222, (1S,4S)-1-{5-[6-(Thiazolo[4,5-c]pyridin-2-yloxy)-benzofuran-3-ylmethyl]-2,5-diaza-bicyclo[2.2.1]hept-2-yl}-ethanone]: the IC50 is 365 nM. The result for `Clc1cnc2nc(Oc3ccc4c(CN5CCOCC5)c[nH]c4c3)sc2c1` [Example 59, 6-Chloro-2-(3-morpholin-4-ylmethyl-1H-indol-6-yloxy)-thiazolo[4,5-b]pyridine] reads 111 nM; that for `CN(C)CCCN(C)C(=O)c1coc2cc(Oc3nc4ncccc4s3)ccc12` [Example 388, 6-(Thiazolo[4,5-b]pyridin-2-yloxy)-benzofuran-3-carboxylic acid (3-dimethylamino-propyl)-methyl-amide], 150 nM.

In the case of `c1ccc2sc(Oc3ccc4[nH]cc(CN5CCCC5)c4c3)nc2c1` [Example 9, 2-(3-Pyrrolidin-1-ylmethyl-1H-indol-5-yloxy)-benzothiazole], the half-inhibitory concentration (IC50) came to 591 nM. The result for `CC(=O)N1CCN(Cc2cc3ncc(Oc4nc5ncccc5s4)cc3o2)CC1` [Example 343, 1-{4-[6-(Thiazolo[4,5-b]pyridin-2-yloxy)-furo[3,2-b]pyridin-2-ylmethyl]-piperazin-1-yl}-ethanone formate] reads 250 nM; that for `FC1CCN(Cc2cc3ccc(Oc4nc5ncccc5s4)cc3o2)CC1` [Example 190, 2-[2-(4-Fluoro-piperidin-1-ylmethyl)-benzofuran-6-yloxy]-thiazolo[4,5-b]pyridine formate], 116 nM; that for `c1ccc2c(c1)CC(NCc1coc3cc(Oc4nc5ncccc5s4)ccc13)C2` [Example 320, Indan-2-yl-[6-(thiazolo[4,5-b]pyridin-2-yloxy)-benzofuran-3-ylmethyl]-amine formate], 15 nM.

Turning to `FC(F)(F)C1CCN(Cc2coc3cc(Oc4nc5ncccc5s4)ccc23)CC1` [Example 163, 2-[3-(4-Trifluoromethyl-piperidin-1-ylmethyl)-benzofuran-6-yloxy]-thiazolo[4,5-b]pyridine], the IC50 is 107 nM. The result for `NC(=O)N1C[C@@H]2C[C@H]1CN2Cc1cc2ncc(Oc3nc4ncccc4s3)cc2o1` [Example 337, (1S,4S)-5-[6-(Thiazolo[4,5-b]pyridin-2-yloxy)-furo[3,2-b]pyridin-2-ylmethyl]-2,5-diaza-bicyclo[2.2.1]heptane-2-carboxylic acid amide formate] reads 270 nM; that for `CC(=O)N1C[C@H]2CC[C@@H](C1)N2Cc1cc2cc(Oc3nc4cccnc4s3)ccc2o1` [Example 123, meso-1-{8-[5-(Thiazolo[5,4-b]pyridin-2-yloxy)-benzofuran-2-ylmethyl]-3,8-diaza-bicyclo[3.2.1]oct-3-yl}-ethanone], 89 nM; that for `CC(=O)N[C@H]1C[C@H]2CC[C@@H](C1)N2Cc1cc2cc(Oc3nc4cccnc4s3)ccc2o1` [Example 125, meso-endo-N-{8-[5-(Thiazolo[5,4-b]pyridin-2-yloxy)-benzofuran-2-ylmethyl]-8-aza-bicyclo[3.2.1]oct-3-yl}-acetamide], 200 nM.

As to `O=C1CCCN1C1CCN(Cc2cc3ncc(Oc4nc5ncccc5s4)cc3o2)CC1` [Example 341, 1-{1-[6-(Thiazolo[4,5-b]pyridin-2-yloxy)-furo[3,2-b]pyridin-2-ylmethyl]-piperidin-4-yl}-pyrrolidin-2-one], the half-inhibitory concentration (IC50) was 470 nM.
